Measurements taken from patent US11879140B2, “P21 mRNA targeting DNAzymes” (1E Therapeutics Ltd., priority 2020, dated 2024).
“Also recorded” adds a separate entry of the source.

Columns and labels:
p21 protein [1] = assay: p21 protein in HepG2 cell lysate (IF and ELISA); type: cell-based, human; details: Etoposide alone or with scramble or DNAzyme 1670 (FIGS. 15B-C)
Method: p21 protein quantification was analyzed using (Human p21 ELISA Kit—ab214658, Abcam), according to the manufacturer's instructions. The cell pellets were incubated with Cell Extraction Buffer PTR on ice for 20 minutes. Following Centrifuge at 18,000×g for 20 minutes, the sample protein concentrations were quantified using a BCA protein assay. The samples and Antibody Cocktail were added to appropriate wells and incubated for one hour at room temperature (RT), followed by three washes with Wash Buffer and incubation with TMB Development Solution for 15 minutes at RT. Then, the Stop Solution was added, the samples were incubated for 1 minute, and the samples were read by absorbance at 450 nm using plate reader.

[2] = DNAzyme stability analysis in serum; type: in vitro ADME
Method: DNAzyme stability was assessed by incubation with PBS, plasma and BALF (Bronchoalveolar Lavage Fluid). A comparison between unmodified and 3′Inverted dT modification was made. Following incubation for the indicated time points, samples were analyzed using gel electrophoresis. Quantification compared to time 0 was performed using Image Lab software (Bio Rad).

p21 protein [3] = assay: Immunofluorescence of p21 protein in senescent cells; type: cell-based, human; details: 48 hour treatment, 1000 nM, compared to control scramble (FIG. 5G)
Method: 48 hours following transfection. IMR-90 cells were fixed by PFA 4% following the indicated treatments. Cells were blocked and incubated with antibodies against human p21 (CST) in blocking solution. Cells were then incubated with Dylight-549-conjugated secondary antibody (Jackson ImmunoResearch) and counterstained with DAPI (Sigma). Images were acquired using Nikon Eclipse Ti2 microscope at ×10 magnification.
Alternatively, cells were fixed with 4% Formaldehyde for 15 minutes, permeabilized in 0.2% […] for 5 minutes and blocked with 2% bovine serum albumin (BSA) for 30 min in room temperature. Cells were then incubated with a primary or with a conjugated antibody over-night or for 3 hours respectively. For unconjugated antibodies, a corresponding fluorescently-labelled secondary antibody was added for 1 hour, followed by Hoechst counterstaining. Cells were washed with PBS three times following each step. Images were acquired using Nikon Eclipse Ti2 microscope at ×10 magnification.
Antibodies were diluted in blocking solution as indicated below: 53BP1 antibody (Novus biologicals NB100-304, 1:800), Phospho-histone H2AX antibody (Cell signaling #2577, 1:800), p21 Waf1/Cip1 antibody (Cell signaling #8865, 1:500), p16 antibody (Santa Cruz sc-56330, 1:200), Alexa Fluor-488 goat anti mouse (Thermo Fisher A11029, 1:1000).

cancer cells (A549) = assay: Dose response on A549 cancer cells; type: cell-based; details: A549, scramble versus DNAzyme 1670 (FIG. 16B)
Excerpt: (§1) PANC-1 cells were maintained in DMEM medium supplemented with 10% fetal bovine serum, 1% penicillin-streptomycin and 1% sodium pyruvate. HCT116 cells were maintained in McCoy's 5A medium supplemented with 10% fetal bovine serum and 1% penicillin-streptomycin. A549 cells were maintained in F-12K Medium supplemented with 10% fetal bovine serum and 1% penicillin-streptomycin. HepG2 cell were maintained Eagle's Minimum Essential Medium, supplemented in 10% fetal bovine serum, 1% penicillin-streptomycin and 1% sodium pyruvate. All cancer cell lines were incubated in 5% C02 at 37° C.
(§2) Cancer cell lines were seeded in 96 well plates 24 hours before treatment. Chemotherapies were applied at indicated concentrations either alone or as combination with DNAzyme-lipofectamine complex. 72 hours following treatment, cell viability was measured using Prestoblue® reagent. Chemotherapies were diluted in cell medium to the indicated concentrations. 24 hours following seeding, culture medium was replaced with chemotherapy containing medium, immediately followed by transfection of DNAzyme as described above. 72 hours following treatment, cell viability was measured using Prestoblue® reagent.

HepG2 cells = assay: Chemotherapy and DNAzyme combination, HepG2; type: cell-based
Excerpt: as §1, §2
The following chemotherapies were used: Etoposide (Sigma), Palbociclib (Sigma), Doxorubicin (Sigma), Cisplatin (Sigma), ABT-263 (Selleckchem). All compounds were dissolved and stored according to manufacturer instructions.

human p21 mRNA = assay: In vitro cleavage assay of human p21 mRNA; type: biochemical; details: in vitro cleavage of p21 mRNA (SEQ ID NO: 1); RNA substrate 500 nM, 37° C. 60 min, agarose gel
In short: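 RNA substrates were T7 in vitro transcripts from PCR-amplified cDNA (source RNA: senescent IMR-90 cells), gel-purified. Substrate at 500 nM final was incubated with DNAzyme (10 μM stock) in reaction buffer (10× stock: 50 mM Tris-HCl pH 7.4, 100 mM NaCl, 10 mM MgCl2) for 60 min at 37 °C. Cleavage products were resolved on 1.5% agarose TBE gels and quantified by densitometry.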

p21 mRNA = assay: Quantitative RT-PCR of p21 mRNA in senescent cells; type: cell-based, human; details: over 24 hours following treatment, 2000 nM (FIG. 5D)
Method: Total RNA was extracted from IMR-90 cells using NucleoSpin® RNA (Macherey-Nagel™), according to the manufacturer protocol. Complementary DNA was prepared using the M-MLV Reverse Transcriptase (Promega), according to the manufacturer protocol. Quantitative real-time PCR was performed using the SYBR Green PCR master-mix (Applied Biosystems) on a CFX96 Real-Time PCR System (Bio Rad). See primer sequences in Table 1, above.

DNAzyme 1670: SEQ ID NO: 54: GGGAAAGGAggctagctacaacgaAAGGGGGAG (DNA GGGAAAGGAGGCTAGCTACAACGAAAGGGGGAG; DNA, backbone and methylation of C not given here)
p21 protein in cell lysate (p21 protein [1]): can counteract the upregulation in p21 levels
time to complete degradation in serum ([2]; unmodified DNAzyme, from the start of incubation (FIG. 13A)): 48 h
time to degradation in serum ([2]; with 3′ inverted dT modification versus unmodified (FIG. 13B)): significantly increased
p21 protein levels (p21 protein [3]): significantly reduced
senolytic effect, dose response (cancer cells (A549)): senolytic effect in a wide range of doses; also recorded: effective at much lower concentration
sub-clinical doses of various chemotherapies in combination with DNAzyme, synergy (HepG2 cells; HepG2 (FIG. 12G)): synergistic activity
combination treatment of Etoposide and DNAzyme, synergy (HepG2 cells; liver cancer cell line HepG2 (FIG. 12F)): good synergistic results
Validated cleavage (human p21 mRNA): time and concentration dependent; also recorded: validated for mediating cleavage of p21 mRNA
p21 mRNA knockdown (p21 mRNA): 57%
